Strand notation (5' to 3'): a small letter for the sugar, then the base; units joined by * are phosphorothioate-linked, units joined directly phosphodiester-linked; [ ] holds rarer units or linkages, { } end groups; capitals alone tell only the bases. [Uhd] = commercial nucleoside analogue vector Uhd (Shanghai Hongene), the reference conjugate, placed in the sense strand; [NM031] = nucleoside analogue NM031 of the disclosure, C16 lipid conjugate (uridine-based); {VP} = vinylphosphonate on the antisense 5' end; e = 2'-O-(2-methoxyethyl) (MOE); m = 2'-O-methyl; f = 2'-fluoro
Experiments:
target gene SOD1 [1] = experiment: Test Example 4: lipid conjugated siRNA sequences with different carbon chain lengths, SOD1 in mouse brain, lateral ventricle administration; assay type: in vivo, C57BL/6j mice; parameters: Right hemisphere Mean value of inhibition rate / Left hemisphere Mean value of inhibition rate: unit not given here; settings: D5; for Left hemisphere Mean value of inhibition rate: left hemisphere (non-administration side); for Left hemisphere Mean value of inhibition rate / Right hemisphere Mean value of inhibition rate: lateral ventricle; for Right hemisphere Mean value of inhibition rate: right hemisphere (administration side)
Description: 6-8 Week-old C57BL/6j mice were randomly grouped by body weight. Mice in each group were administered with siRNA by lateral ventricle administration, with an administration dose per mouse depending on a specific test. Taking Bregma in mouse brain as point 0 (origin), coordinates of right ventricle were found using the cerebral stereotaxic apparatus and position was marked on surface of skull (position of lateral ventricle was AP (anteroposterior, bregma anterior and posterior): −0.58 mm, ML (mediolateral, left and right of middle raphe): −1.2 mm, DV (dorsoventral, up and down cerebral dura mater plane): −2.2 mm). A dental electric drill was used to drill in the skull above a position of interest, and then medicament was injected into the lateral ventricle by a micro-dosing pump, wherein a total injection volume was 5 μL, and injection duration was 10 min. Needle was retained for 5 min after completion of injection, and then slowly withdrawn. Afterwards, needle hole was sealed with biomedical glue, and then head skin was adhered. After animals woke up, the animals were returned back to animal house and further fed. PBS control group was administered with the same volume of siRNA-free PBS solution. The day of administration was recorded as 0 day (D0), and the mice were sacrificed at observation point after the administration. Different parts of brain region were respectively taken and stored in the RNAlater.
(§1) RNA extraction: the above tissue samples were taken out from the RNAlater, and smashed for 60 s in Tissuelyser type II full-automatic tissue homogenizer, and total RNAs of various tissue samples were extracted using the full-automatic nucleic acid extraction instrument and the nucleic acid extraction kit from Zhejiang Hanwei Science and Technology Co. Ltd. according to methods described in instructions.
(§2) Reverse transcription reaction: 1 μg of the extracted total RNAs of the tissue samples were taken, and configured into 20 μL of reverse transcription system according to a method described in kit instructions by using a reverse transcription kit (Reverse Transcription System, A3500) from Promega Corporation and selecting Oligo (dT)15 reverse transcription primers, and the reverse transcription reaction was completed. After the reaction was ended, 80 μL of RNase-Free water was added into the reverse transcription system to provide cDNA solution for Real-time PCR detection.
(§3) Real-time PCR detection: 20 μL of Real-time PCR reaction system per PCR detection well was configured according to a method described in kit instructions using SYBR™ Select Master Mix (Catalog number: 4472908) reagent from ABI company. Each detection system contained 5 μL of cDNA template obtained from the above reverse transcription reaction, 10 μL of SYBR™ Select Master Mix, 0.5 μL of 10 μM upstream primers, 0.5 μL of 10 μM downstream primers, and 4 μL of RNase-Free H2O. The configured reaction system was subjected to Real-time PCR amplification on ABI StepOnePlus PCR instrument by a three-step method, wherein an amplification procedure was pre-denaturation at 95° C. for 10 min, then denaturation at 95° C. for 30 s, annealing at 60° C. for 30 s, and extension at 72° C. for 30 s; and processes of denaturation, annealing, and extension were repeated for 40 cycles. Gene expression differences were calculated by the ΔΔCt method after completion of the procedure.
In the real-time fluorescence quantitative PCR method, relative quantitative calculation of remaining expression level and inhibition rate of gene mRNA of interest in various test groups was performed by the ΔΔCt method, and the calculation method is as follows: […]

target gene SOD1 [2] = experiment: Test Example 5: inhibitory activity of lipid conjugated siRNA sequences on SOD1 by intrathecal administration to rats; assay type: in vivo, SD rats; parameters: key to Lumbar segmen Mean value of inhibition rate / Cortex Mean value of inhibition rate / Thoracic segment Mean value of inhibition rate / Cervical segment Mean value of inhibition rate / Cerebellum Mean value of inhibition rate / Hippocampus Mean value of inhibition rate: inhibition rate of SOD1 mRNA, calculated by the ΔΔCt method; settings: intrathecal, 900 μg per rat, D7; for Cortex Mean value of inhibition rate: cerebral cortex; for Cervical segment Mean value of inhibition rate: spinal cord cervical segment; for Lumbar segmen Mean value of inhibition rate: spinal cord lumbar segment; for Thoracic segment Mean value of inhibition rate: spinal cord thoracic segment
Description: 6-8 Week-old SD rats were randomly grouped by body weight. Rats in each group were administered with siRNA by intrathecal administration, with an administration dose of 900 μg per rat. Injection was administered from rat spinal cord L5-L6, with an administration volume of 40 μL. Needle was retained for 2 min after completion of injection, and then slowly withdrawn. PBS control group was administered with the same volume of siRNA conjugate-free PBS solution. The day of administration was recorded as 0 day (D0), and the rats were sacrificed at observation point after administration. Different segments of spinal cord and different regions of brain were respectively taken and stored in the RNAlater.
as §1, §2, §3
(§4) In the real-time fluorescence quantitative PCR method, relative quantitative calculation of remaining expression level and inhibition rate of gene mRNA of interest in various test groups was performed by the ΔΔCt method, and the calculation method is as follows:
The present example evaluated, by an evaluation method for inhibitory activity on a target gene by intrathecal administration to rats, the inhibitory activity of siRNA sequence RZ899060 with the sense strand with the NM031 conjugation at Position 4 and vector-free siRNA sequence RZ899056, and Uhd conjugated siRNA reference sequence RZ899055 on the target gene SOD1 of interest in spinal cord and brain of rats.
6-8 Week-old SD rats were randomly grouped by body weight, 5 per group, 4 groups in total. Rats in each group were dosed with the above siRNA conjugates by intrathecal administration, with an administration dose of 900 μg per rat, and an administration volume of 40 μL. PBS control group was administered with the same volume of siRNA conjugate-free PBS solution. The day of administration was recorded as 0 day (D0), and the rats were sacrificed on D7 after administration. […]

target gene SOD1 [3] = experiment: Test Example 12: inhibitory activity of lipid conjugated siRNA sequence on SOD1 in mouse eyes (intravitreal administration); assay type: in vivo, C57BL/6J mice; settings: intravitreal, right eye, 7.5 μg per mouse, D14
Description: as §1, §2, §3, §4
The present test example evaluated, by an evaluation method for inhibitory activity on a target gene in mice, the inhibitory activity of siRNA sequence RZ899091 with the sense strand with the NM074 conjugation at Position 4 and siRNA reference sequence RX899121 without vector conjugation on the target gene SOD1 of interest in mice.
6-8 Week-old C57BL/6J mice were randomly grouped by body weight, 5 in each group and 3 groups in total. Mice in each group were administered with the above siRNA conjugate by intravitreal administration to right eyes of the mice, with an administration dose of 7.5 μg per mouse, and an administration volume of 2 μL. PBS control group was administered with the same volume of siRNA conjugate-free PBS solution. The day of administration was recorded as D0, and the mice were sacrificed at D14 after administration. Administration-side ocular retina, choroid, cornea, sclera and other tissues were respectively taken and stored in the RNAlater. RNA extraction, reverse transcription, and real-time fluorescence quantitative detection were performed on various tissues according to the above method, and gene expression differences were calculated by the above ΔΔCt method.

Row | Substance | Left hemisphere Mean value of inhibition rate (target gene SOD1 [1]; 150 μg per mouse) | Right hemisphere Mean value of inhibition rate (target gene SOD1 [1]; 150 μg per mouse) | Cerebellum Mean value of inhibition rate (target gene SOD1 [2]) | Cortex Mean value of inhibition rate (target gene SOD1 [2]) | Hippocampus Mean value of inhibition rate (target gene SOD1 [2]) | Cervical segment Mean value of inhibition rate (target gene SOD1 [2]) | Lumbar segmen Mean value of inhibition rate (target gene SOD1 [2]) | Thoracic segment Mean value of inhibition rate (target gene SOD1 [2]) | other results
1 | RX599002: vector-free siRNA sequence; SEQ ID NO: 17 / 24 (sense mU*mU*mUmUmAmAfUfCfCfUmCmAmCmUmCmUmAmAmA; antisense {VP}-mU*fU*mUmAmGfAmGmUfGmAmGmGmAfUeUfAmAmAmA*mU*mG) [reference compound] | 55.55 | 74.62 |  |  |  |  |  |  | 
2 | RZ899092: siRNA sequence with the sense strand with the NM031 (C16) conjugation at Position 4; SEQ ID NO: 14 / 23 (sense mU*mU*mU[NM031]mAmAfUfCfCfUmCmAmCmUmCmUmAmAmA; antisense {VP}-mU*fU*mUmAmGfAmGmUmGmAmGfGmAfUeUfAmAmAmA*mU*mG) | 60.45 | 79.45 |  |  |  |  |  |  | inhibitory activity compared with the vector-free siRNA sequence RX599002 (target gene SOD1 [1]; left and right hemisphere, lateral ventricle 150 μg per mouse): superior inhibitory activity; activity compared with Uhd conjugated reference sequence RZ899093 and NM200 (C22) conjugated reference sequence RZ899076 (target gene SOD1 [1]; right hemisphere (administration side) and left hemisphere (non-administration side), 150 μg per mouse): substantially comparable activity in the right hemisphere
3 | RZ899055: Uhd conjugated siRNA reference sequence; SEQ ID NO: 4 / 22 (sense mU*mU*mU[Uhd]mAmAfUfCfCmUmCmAmCmUmCmUmAmAmA; antisense {VP}-mU*fU*mUmAmGfAmGmUmGmAmGmGmAfUmUfAmAmAmA*mU*mG) |  |  | 68.43 | 41.47 | 48.56 | 81.31 | 87.46 | 91.10 | 
4 | RZ899077: siRNA sequence with the sense strand with the NM201 (C22) conjugation at Position 4; SEQ ID NO: 19 / 24 (sense UUUNAAUCCUCACUCUAAA; antisense UUUAGAGUGAGGAUUAAAAUG; NM201 (C22) conjugate at sense position 4; modified_base 1..2 OTHER; 2'-methoxy and 5'-thiophosphate modified nucleotides; modified_base 3 OTHER; 2'-methoxy modified nucleotide; modified_base 4 OTHER; n is the synthetic nucleotide analog NM201 as described in the disclosure.; modified_base 5..6 OTHER; 2'-methoxy modified nucleotides; modified_base 7..10 OTHER; 2'-fluoro modified nucleotides; modified_base 11..19 OTHER; 2'-methoxy modified ; modified_base 1 OTHER; 2'-methoxy and 5'-thiovinylphosphonate modified nucleotide; modified_base 2 OTHER; 2'-fluoro and 5'-thiophosphate modified …) | 32.81 | 43.33 |  |  |  |  |  |  | 
5 | RX899121: siRNA reference sequence without vector conjugation; SEQ ID NO: 25 / 23 (sense mU*mU*mUmUmAmAfUfCfCfUmCmAmCmUmCmUmAmAmA; antisense {VP}-mU*fU*mUmAmGfAmGmUmGmAmGfGmAfUeUfAmAmAmA*mU*mG) [reference compound] |  |  |  |  |  |  |  |  | Choroid % Mean value of inhibition rate (target gene SOD1 [3]; choroid): 3.16%; Cornea and sclera % Mean value of inhibition rate (target gene SOD1 [3]; cornea and sclera): 5.35%; Kidney % Mean value of inhibition rate (target gene SOD1 [3]; kidney): 2.89%; Liver % Mean value of inhibition rate (target gene SOD1 [3]; liver): 5.35%; Retina % Mean value of inhibition rate (target gene SOD1 [3]; retina): 17.47%
6 | RZ899056: vector-free siRNA sequence; SEQ ID NO: 1 / 22 (sense mU*mU*mUmUmAmAfUfCfCmUmCmAmCmUmCmUmAmAmA; antisense {VP}-mU*fU*mUmAmGfAmGmUmGmAmGmGmAfUmUfAmAmAmA*mU*mG) |  |  | 50.22 | 33.88 | 41.25 | 70.86 | 87.58 | 89.69 | 

Reference: patent US20260132165A1, “MODIFIED NUCLEOSIDE ANALOGUE AND USE THEREOF, AND NUCLEOSIDE ANALOGUE-CONTAINING DOUBLE-STRANDED OLIGONUCLEOTIDE AND USE THEREOF” (RIGERNA THERAPEUTICS (BEIJING) CO., LTD., priority 2023, published 2026)
